The source made the active and inactive calls. No cut-off for these calls is given here.
Legend:
Homo sapiens [1] = organism: Homo sapiens; assay: Inhibition of [15N]-labeled humanized-Xenopus MDM2 (13-119 amino acids) interaction with p53 at 2 mM by NMR method
Homo sapiens [2] = organism: Homo sapiens; assay: Inhibition of Humanized-Xenopus MDM2 (13-119 amino acids) interaction with p53 at 100 uM by SPR analysis
Homo sapiens [3] = organism: Homo sapiens; assay: Inhibition of [15N]-labeled humanized-Xenopus MDM2 (13-119 amino acids) interaction with p53 at 1 mM by NMR method
[4] = Inhibition of Humanized-Xenopus MDM2 (13-119 amino acids) interaction with p53 by SPR analysis; set-up: species or system Homo sapiens
Homo sapiens [5] = organism: Homo sapiens; assay: Inhibition of [15N]-labeled humanized-Xenopus MDM2 (13-119 amino acids) interaction with p53 at 0.5 mM by NMR method
Homo sapiens [6] = organism: Homo sapiens; assay: Inhibition of Humanized-Xenopus MDM2 (13-119 amino acids) interaction with p53 at 1 to 2.5 mM by SPR analysis
Homo sapiens [7] = organism: Homo sapiens; assay: Inhibition of [15N]-labeled humanized-Xenopus MDM2 (13-119 amino acids) interaction with p53 at 0.4 mM by NMR method

## CCOc1cc(C(C)(C)C)ccc1C1=NCC(c2ccc(Cl)cc2)N1 (configuration not stated)
Homo sapiens [1]
  inhibition: Active
Homo sapiens [2]
  inhibition: inactive

## CC1=N[C@@](C)(c2ccc(Cl)cc2)[C@@](C)(c2ccc(Cl)cc2)N1C(=O)N1CCN(CCCS(C)(=O)=O)CC1
Homo sapiens [3]
  inhibition: Active
[4]
  Kd: 14 µM

## CCOc1cc(C(C)(C)C)ccc1C1=N[C@@](C)(c2ccc(Cl)cc2)[C@@](C)(c2ccc(Cl)cc2)N1C(=O)N1CCN(CCCS(C)(=O)=O)CC1 [RO-5045337]
[4]
  Kd: 0.22 µM
Homo sapiens [5]
  inhibition: Active

## CCOc1cc(C(C)(C)C)ccc1-c1ncc[nH]1
Homo sapiens [6]
  inhibition: inactive
Homo sapiens [1]
  inhibition: inactive

## CCOc1cc(C(C)(C)C)ccc1C1=NC(c2ccccc2)CN1C(=O)N1CCN(CCCS(C)(=O)=O)CC1 (configuration not stated)
Homo sapiens [3]
  inhibition: Active
[4]
  Kd: 1000 µM

## Clc1ccccc1
Homo sapiens [6]
  inhibition: inactive
Homo sapiens [3]
  inhibition: inactive

## CC1=N[C@@H](c2ccc(Cl)cc2)[C@@H](c2ccc(Cl)cc2)N1
Homo sapiens [7]
  inhibition: Active
[4]
  Kd: 26 µM

## CC1=N[C@@H](c2ccccc2)[C@@H](c2ccccc2)N1
Homo sapiens [6]
  inhibition: inactive
Homo sapiens [1]
  inhibition: inactive

## CCOc1cc(C(C)(C)C)ccc1C1=NCCN1C(=O)N1CCN(CCCS(C)(=O)=O)CC1
Homo sapiens [2]
  inhibition: inactive
Homo sapiens [3]
  inhibition: inactive

## c1c[nH]cn1
Homo sapiens [6]
  inhibition: inactive
Homo sapiens [3]
  inhibition: inactive

## CCOc1cc(C(C)(C)C)ccc1C1=N[C@@](C)(c2ccc(Cl)cc2)[C@@](C)(c2ccc(Cl)cc2)N1
Homo sapiens [7]
  inhibition: Active
[4]
  Kd: 20 µM

— ChEMBL document CHEMBL2406993, “Deconstruction of a nutlin: dissecting the binding determinants of a potent protein-protein interaction inhibitor” (ACS Med Chem Lett, 2013)
